Test results published in patent US12195479B2, “Five- and six-membered compound, and preparation method therefor and pharmaceutical composition and use thereof” (HANGZHOU POLYMED BIOPHARMACEUTICALS, INC., priority 2021, dated 2025).

Tests used:
MV4-11 cells = experiment: Cytotoxicity against MV4-11 cells (CellTiter-Glo); assay type: cell-based; conditions: Homo sapiens, incubated for 72 hours, CellTiter-Glo chemiluminescence
Description: Determination of the IC50 Value of the Compound's Cytotoxicity Against MV4-11 Cells
MV-4-11 cells were cultured with IMDM complete medium (IMDM+10% fetal bovine serum+1% Penicillin-Streptomycin, a mixture of penicillin-streptomycin). • 2. MV-4-11 cells in good condition were collected and washed twice with DPBS ([…] phosphate buffered saline solution). • 3. MV-4-11 cells were resuspended with IMDM complete medium, the cell density was adjusted to 1.11×10^6 cells/mL, and the MV-4-11 cells were added to 96-well plates at 90 μL per well. • 4. A compound solution with 10-fold concentration was prepared with IMDM complete medium, 10 μL of the compound solution with 10-fold concentration was added to the cells in the 96-well plate, mixed well, and then the 96-well plate was placed in a 5% CO2 incubator at 37° C. and incubated for 72 hours. • 5. After the incubation, the 96-well plate was taken out and equilibrated for 30 minutes at room temperature. Then 100 μL of CellTiter Glo reagent was added to each well and mixed on a horizontal shaker for 2 minutes. • 6. The 96-well plate was removed, equilibrated at room temperature for 10 minutes, and the chemiluminescence value was detected on a microplate reader.

FLT3 kinase = target: T1, FLT3 kinase (Homo sapiens, UniProt P36888); experiment: Kinase inhibition, fluorescence microfluidic mobility shift assay (FLT3); assay type: biochemical; conditions: substrate peptide FAM-P2 3 μM, ATP 97 μM; one hour at 28° C.; assayed in duplicate
T1 sequence (P36888 564-993): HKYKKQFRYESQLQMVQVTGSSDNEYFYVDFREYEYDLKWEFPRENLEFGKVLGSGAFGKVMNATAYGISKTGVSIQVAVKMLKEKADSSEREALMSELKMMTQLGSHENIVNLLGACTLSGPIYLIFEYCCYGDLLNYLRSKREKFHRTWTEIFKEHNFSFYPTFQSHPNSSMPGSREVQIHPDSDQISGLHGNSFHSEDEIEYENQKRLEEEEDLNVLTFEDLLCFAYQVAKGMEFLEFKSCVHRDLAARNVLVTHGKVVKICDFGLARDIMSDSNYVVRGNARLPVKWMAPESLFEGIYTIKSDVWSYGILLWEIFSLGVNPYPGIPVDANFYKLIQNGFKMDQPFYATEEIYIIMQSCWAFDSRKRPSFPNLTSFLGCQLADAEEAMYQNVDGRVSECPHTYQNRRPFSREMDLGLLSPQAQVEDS
Description: Based on the experimental method of fluorescence microfluidic mobility shift assay, the IC50 value of the compound for competitive binding of ATP to kinases IRAK4 and FLT3 was determined. The initial detection concentration of the compound was 10 μM, which was diluted to 0.38 nM with a 4-fold gradient and assayed in duplicate. In this case, commercially available staurosporine was the standard control for the assay.
Information on reagents and consumables is as follows: • IRAK4 kinase (Carna, Cat. No. 09-145, Lot. No. 14CBS-0020 H) • FLT3 kinase (Carna, Cat. No. 08-154, Lot. No. 07CBS-2350) • Substrate peptide FAM-P2 (GL Biochem, Cat. No. 112394, Lot. No. P131014-XP112394) • Substrate peptide FAM-P8 (GL Biochem, Cat. No. 112396, Lot. No. P170731-SY112396) • ATP (adenosine triphosphate, Sigma, Cat. No. A7699-1G, CAS No. 987-65-5) • DMSO (dimethyl sulfoxide, Sigma, Cat. No. D2650) • EDTA (ethylenediaminetetraacetic acid, Sigma, Cat. No. E5134, CAS No. 60-00-4) • Staurosporine (Selleckchem, Cat. No. 51421) • HEPES (4-(2-Hydroxyethyl)-1-piperazineethanesulfonic acid, Gibco, Cat. No. 15630-080) • Brij-35 solution (Polyoxyethylene lauryl ether, Sigma, Cat. No. B41840-100 mL) • DTT (dithiothreitol, Sigma, Cat. No. D0632-20G) • 0.2% Coating Reagent #3 (0.2% coating reagent, Perkin Elmer, Cat. No. 760050) • 96-well plate (Corning, Cat. No. 3365) • 384-well plate (Corning, Cat. No. 3573) Experimental operation method: • 1) FLT3 and IRAK4 kinases were dissolved in the kinase buffer (50 mM HEPES pH 7.5, 10 mM MgCl2, 2 mM DTT, and 0.01% Brij-35) at final concentrations of 0.9 nM, 30 nM, and 6 nM, respectively. • 2) The substrate peptide FAM-P2 and the substrate peptide FAM-P8, together with ATP, were dissolved in the above kinase buffer, respectively, where the final concentrations of the substrate peptide FAM-P2 and ATP for the determination of FLT3 were 3 μM and 97 μM, respectively; and the final concentrations of the substrate peptide FAM-P8 and ATP for the determination of IRAK4 were 3 μM and 10 μM, respectively. • 3) Compound dilution: The compound was first diluted to 50 μM, and then diluted downward with DMSO in a 4-fold gradient. In this case, the solution without compound and kinase served as the blank control, corresponding to the “minimum value” shown below; the solution without compound but containing kinase, adenosine triphosphate, DMSO, and the buffer served as the positive control, corresponding to the “maximum value” shown below. • 4) Kinase reaction and termination: 10 μL of the kinase buffer was added to a 384-well plate containing 5 μL of the compound to be tested, and the mixture was incubated for 10 minutes at room temperature; another 10 μL, of buffer containing the substrate peptide and adenosine triphosphate was added to the 384-well plate, and after incubation for one hour at 28° C., 25 μL, of termination solution (100 mM HEPES pH 7.5, 50 mM EDTA, 0.2% Coating Reagent #3, and 0.015% Brij-35) was added to each well for reaction termination. • 5) Data reading: CaliperEZ Reader II instrument was used to read the conversion rate data. Setting conditions: downstream voltage as −500 V, upstream voltage as −2250 V, base pressure as −0.5 PSI, and screening pressure as −1.2 PSI. • 6) Data calculation: the conversion rate data was copied from CaliperEZ Reader II, and the conversion rate was converted into inhibition rate data.

IRAK4 kinase = target: T2, IRAK4 kinase (Homo sapiens, UniProt Q9NWZ3); experiment: Kinase inhibition, fluorescence microfluidic mobility shift assay (IRAK4); assay type: biochemical; conditions: substrate peptide FAM-P8 3 μM, ATP 10 μM; one hour at 28° C.; assayed in duplicate
T2 sequence (Q9NWZ3 1-460): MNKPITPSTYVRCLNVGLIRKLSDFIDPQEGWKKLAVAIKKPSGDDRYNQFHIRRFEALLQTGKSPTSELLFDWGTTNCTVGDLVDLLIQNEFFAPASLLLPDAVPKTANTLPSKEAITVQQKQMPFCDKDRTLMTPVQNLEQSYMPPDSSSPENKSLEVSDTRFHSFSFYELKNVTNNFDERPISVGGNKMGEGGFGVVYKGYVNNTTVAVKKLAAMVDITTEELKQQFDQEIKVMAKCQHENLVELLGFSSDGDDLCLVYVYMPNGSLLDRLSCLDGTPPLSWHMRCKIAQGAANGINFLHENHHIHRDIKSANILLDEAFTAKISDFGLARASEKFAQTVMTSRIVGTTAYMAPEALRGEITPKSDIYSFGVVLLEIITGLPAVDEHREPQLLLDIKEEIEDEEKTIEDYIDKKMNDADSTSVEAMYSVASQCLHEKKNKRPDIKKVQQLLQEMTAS

SMILES | IC50 (MV4-11 cells) | IC50 (FLT3 kinase) | IC50 (IRAK4 kinase)
CC(C)c1cc(-c2nc(C(=O)Nc3cc4cn(CCC(C)(C)O)nc4cc3C(C)(C)O)co2)ccn1 [II-104] | 21 nM | 2.31 nM | 5.3 nM
COc1cc2nn(C3CCNCC3)cc2cc1NC(=O)c1coc(-c2ccncc2)n1 [II-10C] | 4.3 nM | 2.9 nM | 25 nM
Cc1cc(-c2nc(C(=O)Nc3cc4cn(C5CCN(CC(F)(F)F)CC5)nc4cc3C(C)(C)O)co2)ccn1 [II-59] | 12.5 nM | 0.63 nM | 4.9 nM
Cc1cc(-c2nc(C(=O)Nc3cc4cn(CCN5CCC(F)(F)C5)nc4cc3C(C)(C)O)co2)ccn1 [II-97] | 13.7 nM | 0.53 nM | 6.9 nM
[2H]C([2H])([2H])C(O)(c1cc2nn(CCC(C)(C)O)cc2cc1NC(=O)c1coc(-c2ccnc(C(F)(F)F)c2)n1)C([2H])([2H])[2H] [II-109] | 15.2 nM | 4.2 nM | 6.48 nM
Cc1cc(-c2nc(C(=O)Nc3cc4cn(CCC(C)(C)O)nc4cc3C(C)(O)C(F)(F)F)co2)ccn1 (stereo not drawn) [II-111] | 0.8 nM | 0.42 nM | 4.94 nM
Cc1cc(-c2nc(C(=O)Nc3cc4cn(CCC(C)(C)O)nc4cc3N3CCC(O)C3)co2)ccn1 (stereo not drawn) [II-102] | 8 nM | 0.85 nM | 21 nM
Cc1cc(-c2nc(C(=O)Nc3cc4cn(C5CCN(C6COC6)CC5)nc4cc3C(C)(C)O)co2)ccn1 [II-106] | 8 nM | 0.41 nM | 3.3 nM
COc1cc2nn(CCS(C)(=N)=O)cc2cc1NC(=O)c1coc(-c2ccnc(C)c2)n1 (stereo not drawn) [II-12] | 17.9 nM | 0.44 nM | 10 nM
Cc1cc(-c2nc(C(=O)Nc3cc4cn(C5CCOC(C)(C)C5)nc4cc3C(C)(C)O)co2)ccn1 (stereo not drawn) [II-103] | 3 nM | 0.35 nM | 3.2 nM
CC(C)(O)c1cc2nn(C3CC4CCC(C3)N4)cc2cc1NC(=O)c1coc(-c2ccnc(C(F)(F)F)c2)n1 (stereo not drawn) [II-118] | 6.2 nM | 0.44 nM | 12.2 nM
Cc1cc(-c2nc(C(=O)Nc3cc4cn(C5CCOCC5)nc4cc3C(C)(C)O)co2)ccn1 [II-56] | 4.6 nM | 0.24 nM | 3.4 nM
CC(C)N1CCC(n2cc3cc(NC(=O)c4coc(-c5ccnc(C(F)(F)F)c5)n4)c(C(C)(C)O)cc3n2)CC1 [II-113F] | 6 nM | 0.38 nM | 4.6 nM
Cc1cc(-c2nc(C(=O)Nc3cc4oc(N5CCOCC5)nc4cc3N3CCC(O)C3)co2)ccn1 (stereo not drawn) [II-132] | 1.2 nM | 0.35 nM | 7.18 nM
Cc1cc(-c2nc(C(=O)Nc3cc4sc(N5CCOCC5)nc4cc3N3CCC(O)C3)co2)ccn1 (stereo not drawn) [II-133] | 0.2 nM | 0.26 nM | 4.84 nM
Cc1cc(-c2nc(C(=O)Nc3cc4cn(C5CCC6(CNC6)C5)nc4cc3C(C)(C)O)co2)ccn1 (stereo not drawn) [II-99] | 10.9 nM | 0.26 nM | 5.5 nM
COc1cc2nn(C3CCNCC3)cc2cc1NC(=O)c1coc(-c2ccnc(C(F)F)c2)n1 [II-94C] | 10.6 nM | 0.44 nM | 8 nM
Cc1cc(-c2nc(C(=O)Nc3cc4cn(CCN5CC6(COC6)C5)nc4cc3C(C)(C)O)co2)ccn1 [II-51] | 16 nM | 0.32 nM | 6.5 nM
